In assay [1] the target is mutant G2019S LRRK2 (Homo sapiens, UniProt Q5S007, G2019S). The assay can be described thus: LRRK2 Assay, Format 1 (Lantha Screen), G2019S mutant.
For assay [2], the target named is T1, GST-tagged truncated LRRK2 (Homo sapiens, UniProt Q5S007).
T1 construct: GST-tagged truncated LRRK2 from Invitrogen (Cat # PV4874); GST; purchased Invitrogen PV4874
Kind of assay: LRRK2 Assay, Format 1 (Lantha Screen), WT. It is filed as biochemical. The protocol:
LRRK2 kinase activity was measured using Lantha Screen technology from Invitrogen. GST-tagged truncated LRRK2 from Invitrogen (Cat # PV4874) was incubated with a fluorescein-labeled peptide substrate based upon ezrin/radixin/moesin (ERM), also known as LRRKtide (Invitrogen cat # PR8976A), in the presence of a dose response of compound. Upon completion, the assay was stopped and detected with a terbium labeled anti-phospho-ERM antibody (Invitrogen, cat # PR8975A). […] Aliquots (3.5 μL) of the 100% DMSO dose response were mixed with 46.5 μL water then 1 μL of this mixture was added to the 3 μL substrate mix in the 384-well plate. The kinase reaction was started with 3 μL of a working solution of LRRK2 enzyme at a concentration of 4 μg/mL. […] The reaction was allowed to progress at room temperature for two hours and then stopped with the addition of 7 μL of detection buffer (20 mM Tris pH 7.6, 0.01% NP-40, 0.02% NaN3, 6 mM EDTA with 2 nM terbium labeled anti-phospho-ERM).

Where [3] appears, read: Format 1, wild-type LRRK2, geometric mean of 2-4 determinations unless footnoted (a: ≥5 determinations; b: single determination; c: determined on trifluoroacetate salt).
Where [4] appears, read: 100 nM LRRKtide, 50 μM ATP, 1.7 μg/mL LRRK2 enzyme, two hours at room temperature.

Sequence of mutant G2019S LRRK2 (Q5S007 970-2527 G2019S limits assumed): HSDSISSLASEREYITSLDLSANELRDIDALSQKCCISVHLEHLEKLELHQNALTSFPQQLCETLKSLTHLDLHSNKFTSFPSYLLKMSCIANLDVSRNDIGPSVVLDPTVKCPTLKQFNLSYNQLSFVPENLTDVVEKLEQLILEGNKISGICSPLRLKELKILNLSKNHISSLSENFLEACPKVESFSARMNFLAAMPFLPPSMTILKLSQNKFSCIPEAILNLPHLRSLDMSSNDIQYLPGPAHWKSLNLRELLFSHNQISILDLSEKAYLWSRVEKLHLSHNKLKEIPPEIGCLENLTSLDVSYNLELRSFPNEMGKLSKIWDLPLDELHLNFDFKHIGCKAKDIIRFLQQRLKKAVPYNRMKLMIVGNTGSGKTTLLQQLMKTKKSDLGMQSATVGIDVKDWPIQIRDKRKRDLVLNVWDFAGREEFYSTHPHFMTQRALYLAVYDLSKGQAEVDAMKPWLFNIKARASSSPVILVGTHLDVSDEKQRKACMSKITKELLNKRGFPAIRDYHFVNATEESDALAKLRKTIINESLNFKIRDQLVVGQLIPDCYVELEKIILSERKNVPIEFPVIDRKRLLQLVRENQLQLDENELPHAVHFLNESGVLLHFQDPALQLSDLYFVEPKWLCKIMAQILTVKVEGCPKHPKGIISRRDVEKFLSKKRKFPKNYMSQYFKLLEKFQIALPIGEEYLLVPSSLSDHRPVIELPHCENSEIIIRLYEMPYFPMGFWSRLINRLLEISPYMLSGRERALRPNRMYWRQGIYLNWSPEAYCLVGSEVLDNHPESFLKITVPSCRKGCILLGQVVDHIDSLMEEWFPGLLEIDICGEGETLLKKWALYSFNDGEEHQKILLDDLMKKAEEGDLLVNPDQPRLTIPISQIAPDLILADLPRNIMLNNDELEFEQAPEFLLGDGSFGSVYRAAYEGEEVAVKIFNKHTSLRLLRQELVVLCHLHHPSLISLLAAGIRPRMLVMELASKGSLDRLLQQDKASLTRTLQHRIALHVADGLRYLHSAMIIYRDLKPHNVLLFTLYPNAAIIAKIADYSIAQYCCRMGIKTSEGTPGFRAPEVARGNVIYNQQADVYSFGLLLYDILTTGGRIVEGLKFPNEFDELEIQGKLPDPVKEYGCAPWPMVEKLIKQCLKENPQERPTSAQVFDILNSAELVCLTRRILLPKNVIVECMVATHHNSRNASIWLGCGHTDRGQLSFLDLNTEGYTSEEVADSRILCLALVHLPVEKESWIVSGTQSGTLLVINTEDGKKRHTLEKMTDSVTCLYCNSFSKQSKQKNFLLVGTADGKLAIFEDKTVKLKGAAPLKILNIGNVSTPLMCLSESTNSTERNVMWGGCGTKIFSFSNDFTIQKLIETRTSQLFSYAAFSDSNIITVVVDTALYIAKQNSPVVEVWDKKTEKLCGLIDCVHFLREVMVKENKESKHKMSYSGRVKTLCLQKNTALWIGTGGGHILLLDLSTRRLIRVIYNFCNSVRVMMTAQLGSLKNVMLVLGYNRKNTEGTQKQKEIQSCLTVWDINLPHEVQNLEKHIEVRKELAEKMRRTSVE
T1 sequence (Q5S007 970-2527 limits assumed): as the sequence (Q5S007 970-2527 G2019S limits assumed) above, with S1050G counted along it

On to `C[C@@H]1C[C@H](n2c(Cc3ccon3)nc3cnc4ccc(Br)cc4c32)CCO1` (single isomer, unassigned) [Example 12], for which the IC50 in assay [1] amounted to 0.0024 µM; in assay [2] (setting [3]) it was 0.0045 µM.
In the same order, the values of `C[C@H]1C[C@@H](n2c(Cc3cn4ncsc4n3)nc3cnc4ccc(Cl)cc4c32)CCO1` (single isomer, unassigned) [Example 64] are 0.132 µM and 0.279 µM.
As to `C[C@@H]1C[C@H](n2c(Cn3cncn3)nc3cnc4ccc(Cl)cc4c32)CCO1` (single isomer, unassigned) [Example 65], the IC50 worked out at 0.0018 µM in assay [1] and 0.0028 µM in assay [2] (setting [3]).
As for `COc1ccc2ncc3nc(Cc4cc(C)on4)n([C@H]4CCO[C@@H](C)C4)c3c2c1` (single isomer, unassigned) [Example C12], the IC50 stood at 0.478 µM in assay [1] and 1.26 µM in assay [2] (setting [3]).
Take `C[C@H]1C[C@@H](n2c(Cc3ccon3)nc3cnc4ccc(Br)cc4c32)CCO1` (single isomer, unassigned) [enantiomer of Example 12]: the IC50 in assay [1] is 0.226 µM; in assay [2] (setting [4]), 0.51 µM.
With `Cc1cc(Cc2nc3cnc4ccc(Cl)cc4c3n2C2CCOC(CC#N)C2)no1` (single isomer, unassigned; ent-2) [enantiomer of Example 134, [cis-4-{8-chloro-2-[(5-methyl-1,2-oxazol-3-yl)methyl]-1H-imidazo[4,5-c]quinolin-1-yl}tetrahydro-2H-pyran-2-yl]acetonitrile, ENT-2], the IC50 in assay [1] came to 0.327 µM; in assay [2] (setting [4]), 0.353 µM.
As to `Cc1nc(Cc2nc3cnc4ccc(Cl)cc4c3n2C2CCOC(CC#N)C2)no1` (single isomer, unassigned; ent-2) [enantiomer of Example 135, [cis-4-{8-chloro-2-[(5-methyl-1,2,4-oxadiazol-3-yl)methyl]-1H-imidazo[4,5-c]quinolin-1-yl}tetrahydro-2H-pyran-2-yl]acetonitrile, ENT-2], the IC50 stood at 1.22 µM in assay [1] and 1.45 µM in assay [2] (setting [4]).
In the case of `COc1ccc(Cc2nc3cnc4ccc(Cl)cc4c3n2[C@@H]2CCO[C@H](C)C2)nc1` [Example 2, 8-Chloro-2-[(5-methoxypyridin-2-yl)methyl]-1-[(2R,4R)-2-methyltetrahydro-2H-pyran-4-yl]-1H-imidazo[4,5-c]quinoline], the figures for the IC50 in assay [1] and in assay [2] (setting [3]) were 0.0056 µM and 0.0068 µM, respectively.
On to `Cc1cc(Cc2nc3cnc4ccc(C#N)cc4c3n2[C@@H]2CCO[C@H](C)C2)no1` [Example 3, 2-[(5-Methyl-1,2-oxazol-3-yl)methyl]-1-[(2R,4R)-2-methyltetrahydro-2H-pyran-4-yl]-1H-imidazo[4,5-c]quinoline-8-carbonitrile], for which the IC50 was found to be 0.0051 µM in assay [1] and 0.0049 µM in assay [2] (setting [3]).
With `Cc1nc2cnc3ccc(Br)cc3c2n1[C@H]1CC[C@@H](F)C1` [Example 6, 8-Bromo-1-[(1S,3R)-3-fluorocyclopentyl]-2-methyl-1H-imidazo[4,5-c]quinoline], the IC50 is 0.168 µM in assay [1] and 0.172 µM in assay [2] (setting [3]).
In the same order, the values of `C[C@@H]1C[C@H](n2c(Cc3cn4ncsc4n3)nc3cnc4ccc(Cl)cc4c32)CCO1` [Example 8, 8-Chloro-2-(imidazo[2,1-b][1,3,4]thiadiazol-6-ylmethyl)-1-[(2R,4R)-2-methyltetrahydro-2H-pyran-4-yl]-1H-imidazo[4,5-c]quinoline] are 0.0031 µM and 0.0044 µM.
In the case of `C[C@@H]1C[C@H](n2c(CC#N)nc3cnc4ccc(Cl)cc4c32)CCO1` [Example 9, {8-Chloro-1-[(2R,4R)-2-methyltetrahydro-2H-pyran-4-yl]-1H-imidazo[4,5-c]quinolin-2-yl}acetonitrile], the values for the concentration for half-maximal inhibition (IC50) in assay [1] and in assay [2] (setting [3]) were 0.0064 µM and 0.0063 µM, respectively.

One may read the IC50 as the concentration that inhibits the measured activity by half.

The values above are taken from US10039753B2, “Imidazo[4,5-c]quinoline and imidazo[4,5-c][1,5]naphthyridine derivatives as LRRK2 inhibitors” (Pfizer Inc., priority 2015, dated 2018).
